test system: HCT-116 cells stably transfected with a Luciferase reporter gene under the control of HIF-responsive element; test: HIF-Luciferase Assay; type: cell-based; conditions: Homo sapiens, HCT-116, HIF-Luciferase Assay, HCT-116 reporter cells, overnight at 1% oxygen; group >10, unit inferred
Method: HCT-116 cells stably transfected with a Luciferase reporter gene under the control of HIF-responsive element were plated in white 96- or 384-well plates at 30,000 or 5,000 cells/well, respectively, in 50 μL/well media (RPMI with 10% fetal bovine serum and 100 μg/mL Hygromycin). Cells were incubated overnight at 37° C. in a humidified incubator containing 5% CO2 under normal oxygen. The next day test compounds were added to the wells at various concentrations (0-10 μM, 0.1% final DMSO concentration) and placed in a hypoxic chamber overnight at 1% oxygen. Following the exposure to hypoxic conditions, 50 μL/well of Bright Glo reagent (Promega, Wisconsin, USA) was added to the wells and luminescence was measured after 5 min. Cells incubated under normal oxygen levels were used as background control. […] Compounds that have IC50 values between 1 μM and 10 μM include those of Examples 8, 16, 38, 39, 40, 41, 42, 43, 47, 48, 53, 54, 56, 57, 66, 69, and 72.

| SMILES | IC50 |
| --- | --- |
| Cc1ccc(Cn2nc(-c3nc(-c4ccc(F)c(Br)c4)no3)cc2C)cc1 [Example 15, 3-(3-bromo-4-fluorophenyl)-5-[5-methyl-1-(4-methylbenzyl)-1H-pyrazol-3-yl]-1,2,4-oxadiazole] | > 10 µM |

same assay, conditions: Homo sapiens, HCT-116, HIF-Luciferase Assay, HCT-116 reporter cells, overnight at 1% oxygen; individual values

| SMILES | IC50 |
| --- | --- |
| Cc1ccc(Cn2nc(-c3nc(-c4ccc(C(C)(C)C)cc4)co3)cc2C)cc1 [Example 77, 4-(4-tert-Butylphenyl)-2-[5-methyl-1-(4-methylbenzyl)-1H-pyrazol-3-yl]-1,3-oxazole] | 0.02 µM |
| Cc1ccc(Cn2nc(-c3nc(-c4ccc(-c5ccccc5)cc4)c[nH]3)cc2C)cc1 [Example 67, 3-(4-biphenyl-4-yl-1H-imidazol-2-yl)-5-methyl-1-(4-methylbenzyl)-1H-pyrazole] | 0.008 µM |
| Cc1ccc(Cn2nc(-c3nc(-c4ccc(C5CCCCC5)cc4)co3)cc2C)cc1 [Example 81, 4-(4-Cyclohex-1-ylphenyl)-2-[5-methyl-1-(4-methylbenzyl)-1H-pyrazol-3-yl]-1,3-oxazole] | 0.05 µM |
| Cc1ccc(Cn2nc(-c3nc(-c4ccc(SC(F)(F)F)cc4)no3)cc2C)cc1 [Example 105, 5-[5-methyl-1-(4-methylbenzyl)-1H-pyrazol-3-yl]-3-4-[(trifluoromethyl)sulfanyl]phenyl-1,2,4-oxadiazole] | 0.03 µM |
| Cc1ccc(Cn2nc(-c3nc(-c4ccc(Cn5cccc5)cc4)no3)cc2C)cc1 [Example 140, 5-[5-Methyl-1-(4-methylbenzyl)-1H-pyrazol-3-yl]-3-[4-(1H-pyrrol-1-yl-methyl)phenyl]-1,2,4-oxadiazole] | 0.04 µM |

same assay, conditions: Homo sapiens, HCT-116, HIF-Luciferase Assay, HCT-116 reporter cells, overnight at 1% oxygen; potency groups

| SMILES | IC50 |
| --- | --- |
| Cc1ccc(Cn2nc(-c3nc(-c4ccc(N5CCOCC5=O)cc4)no3)cc2C)cc1 [Example 26, 4-(4-{5-[5-methyl-1-(4-methylbenzyl)-1H-pyrazol-3-yl]-1,2,4-oxadiazol-3-yl}phenyl)morpholin-3-one] | ≤ 1 µM |
| Cc1ccc(Cn2nc(-c3nc(-c4ccc(-c5ccc(Cl)cc5)cc4)co3)cc2C)cc1 [Example 76, 4-(4′-chlorobiphenyl-4-yl)-2-[5-methyl-1-(4-methylbenzyl)-1H-pyrazol-3-yl]-1,3-oxazole] | ≤ 1 µM |
| Cc1ccc(Cn2nc(-c3nc4c(C)cccc4[nH]3)cc2C)cc1 [Example 40, 4-methyl-2-[5-methyl-1-(4-methylbenzyl)-1H-pyrazol-3-yl]-1H-benzimidazole] | 1 to 10 µM |
| Cc1ccc(Cn2nc(-c3nc(-c4ccc(C(C)(C)C)cc4)co3)cc2C)cc1 [Example 77, 4-(4-tert-Butylphenyl)-2-[5-methyl-1-(4-methylbenzyl)-1H-pyrazol-3-yl]-1,3-oxazole] | ≤ 1 µM |
| Cc1ccc(Cn2nc(-c3nc4ccc(Br)cc4[nH]3)cc2C)cc1 [Example 37, 6-Bromo-2-[5-methyl-1-(4-methylbenzyl)-1H-pyrazol-3-yl]-1H-benzimidazole] | ≤ 1 µM |
| Cc1ccc(Cn2nc(-c3nc(-c4ccccc4)c(-c4ccccc4)[nH]3)cc2C)cc1 [Example 66, 3-(4,5-diphenyl-1H-imidazol-2-yl)-5-methyl-1-(4-methylbenzyl)-1H-pyrazole] | 1 to 10 µM |
| Cc1ccc(Cn2nc(C3=NC(c4ccccc4)CO3)cc2C)cc1 (centres unmarked) [Example 69, 2-[5-Methyl-1-(4-methylbenzyl)-1H-pyrazol-3-yl]-4-phenyl-4,5-dihydro-1,3-oxazole] | 1 to 10 µM |
| Cc1ccc(Cn2nc(-c3nc(-c4ccc(C(F)(F)F)nc4)no3)cc2C)cc1 [Example 17, 5-{5-[5-methyl-1-(4-methylbenzyl)-1H-pyrazol-3-yl]-1,2,4-oxadiazol-3-yl}-2-(trifluoromethyl)pyridine] | ≤ 1 µM |
| Cc1ccc(Cn2nc(-c3nc4ccc(-c5ccccc5)cc4[nH]3)cc2C)cc1 [Example 45, 2-[5-methyl-1-(4-methylbenzyl)-1H-pyrazol-3-yl]-6-phenyl-1H-benzimidazole] | ≤ 1 µM |
| Cc1ccc(Cn2nc(-c3nc4c(C)cc(Br)cc4[nH]3)cc2C)cc1 [Example 57, 6-bromo-4-methyl-2-[5-methyl-1-(4-methylbenzyl)-1H-pyrazol-3-yl]-1H-benzimidazole] | 1 to 10 µM |
| Cc1ccc(Cn2nc(-c3nc4ccc(C5CCCCC5)cc4[nH]3)cc2C)cc1 [Example 51, 6-cyclohexyl-2-[5-methyl-1-(4-methylbenzyl)-1H-pyrazol-3-yl]-1H-benzimidazole] | ≤ 1 µM |
| Cc1ccc(Cn2nc(-c3nc(-c4ccc(-c5ccccc5)cc4)c[nH]3)cc2C)cc1 [Example 67, 3-(4-biphenyl-4-yl-1H-imidazol-2-yl)-5-methyl-1-(4-methylbenzyl)-1H-pyrazole] | ≤ 1 µM |
| Cc1ccc(Cn2nc(-c3nc4ccncc4[nH]3)cc2C)cc1 [Example 42, 2-[5-methyl-1-(4-methylbenzyl)-1H-pyrazol-3-yl]-3H-imidazo[4,5-c]pyridine] | 1 to 10 µM |
| Cc1ccc(Cn2nc(-c3nc(-c4ccc(N5CCOC5=O)cc4)no3)cc2C)cc1 [Example 25, 3-(4-{5-[5-methyl-1-(4-methylbenzyl)-1H-pyrazol-3-yl]-1,2,4-oxadiazol-3-yl}phenyl)-1,3-oxazolidin-2-one] | ≤ 1 µM |
| Cc1ccc(Cn2nc(-c3nc4ccc(OC(F)(F)F)cc4[nH]3)cc2C)cc1 [Example 58, 2-[5-methyl-1-(4-methylbenzyl)-1H-pyrazol-3-yl]-6-(trifluoromethoxy)-1H-benzimidazole] | ≤ 1 µM |
| Cc1ccc(Cn2nc(-c3nc4ccc(C(=O)c5ccccc5)cc4[nH]3)cc2C)cc1 [Example 46, {2-[5-methyl-1-(4-methylbenzyl)-1H-pyrazol-3-yl]-1H-benzimidazol-6-yl}(phenyl)methanone] | ≤ 1 µM |
| Cc1ccc(Cn2nc(-c3nc4ccc(N5CCCCC5)cc4[nH]3)cc2C)cc1 [Example 49, 2-[5-methyl-1-(4-methylbenzyl)-1H-pyrazol-3-yl]-6-piperidin-1-yl-1H-benzimidazole] | ≤ 1 µM |
| Cc1ccc(Cn2nc(-c3nc4ccc(-c5ccccc5F)cc4[nH]3)cc2C)cc1 [Example 60, 6-(2-fluorophenyl)-2-[5-methyl-1-(4-methylbenzyl)-1H-pyrazol-3-yl]-1H-benzimidazole] | ≤ 1 µM |
| Cc1ccc(Cn2nc(-c3nc(-c4ccccc4)co3)cc2C)cc1 [Example 74, 2-[5-Methyl-1-(4-methylbenzyl)-1H-pyrazol-3-yl]-4-phenyl-1,3-oxazole] | ≤ 1 µM |
| Cc1ccc(Cn2nc(-c3nc(-c4ccc(Br)cc4)co3)cc2C)cc1 [Example 75, 4-(4-bromophenyl)-2-[5-methyl-1-(4-methylbenzyl)-1H-pyrazol-3-yl]-1,3-oxazole] | ≤ 1 µM |
| Cc1ccc(Cn2nc(-c3nc(-c4ccc(N5CCOCC5)cc4)no3)cc2C)cc1 [Example 21, 4-(4-{5-[5-Methyl-1-(4-methylbenzyl)-1H-pyrazol-3-yl]-1,2,4-oxadiazol-3-yl}phenyl)morpholine] | ≤ 1 µM |
| Cc1ccc(Cn2nc(-c3nc4ccc(C)cc4[nH]3)cc2C)cc1 [Example 39, 6-methyl-2-[5-methyl-1-(4-methylbenzyl)-1H-pyrazol-3-yl]-1H-benzimidazole] | 1 to 10 µM |
| Cc1ccc(Cn2nc(-c3nc4ccc(-c5cccc(Cl)c5)cc4[nH]3)cc2C)cc1 [Example 63, 6-(3-chlorophenyl)-2-[5-methyl-1-(4-methylbenzyl)-1H-pyrazol-3-yl]-1H-benzimidazole] | ≤ 1 µM |
| Cc1ccc(Cn2nc(-c3nc4ccc(Cl)cc4[nH]3)cc2C)cc1 [Example 41, 6-chloro-2-[5-methyl-1-(4-methylbenzyl)-1H-pyrazol-3-yl]-1H-benzimidazole] | 1 to 10 µM |
| Cc1ccc(Cn2nc(-c3nc4cc(Cl)c(F)cc4[nH]3)cc2C)cc1 [Example 56, 5-chloro-6-fluoro-2-[5-methyl-1-(4-methylbenzyl)-1H-pyrazol-3-yl]-1H-benzimidazole] | 1 to 10 µM |
| Cc1ccc(Cn2nc(-c3nc4cc5ccccc5cc4[nH]3)cc2C)cc1 [Example 47, 2-[5-methyl-1-(4-methylbenzyl)-1H-pyrazol-3-yl]-1H-naphtho[2,3-d]imidazole] | 1 to 10 µM |
